# Test results from ChEMBL document CHEMBL5143705, “Design, synthesis and structure-activity relationship of 4-(1,1,1,3,3,3-hexafluoro-2-hydroxyisoprop-2-yl)phenylsilane derivatives as liver X receptor agonists” (Bioorg Med Chem, 2022).
# Test system: not listed separately
# Experiment: Toxicity in human HEK293 cells assessed as reduction in cell viability at 10 uM
# Format: cell-based
# Conditions: hek293, 10 µM
row,Compound,Activity
1,CC(O)[Si](C)(C)c1ccc(C(O)(C(F)(F)F)C(F)(F)F)cc1 (stereo not given),Non-Toxic
2,C[Si](C)(CCCO)c1ccc(C(O)(C(F)(F)F)C(F)(F)F)cc1,Non-Toxic
3,C[Si](O)(c1ccccc1)c1ccc(C(O)(C(F)(F)F)C(F)(F)F)cc1 (stereo not given),Non-Toxic
4,CN(c1ccc(C(O)(C(F)(F)F)C(F)(F)F)cc1)S(=O)(=O)c1ccccc1,Non-Toxic
5,CC[Si](CC)(CC)c1ccc(C(O)(C(F)(F)F)C(F)(F)F)cc1,Non-Toxic
6,C[Si](C)(C)[Si](C)(C)c1ccc(C(O)(C(F)(F)F)C(F)(F)F)cc1,Non-Toxic
7,CCC[Si](CCC)(CCC)c1ccc(C(O)(C(F)(F)F)C(F)(F)F)cc1,Non-Toxic
8,CC(C)(C)[Si](C)(C)c1ccc(C(O)(C(F)(F)F)C(F)(F)F)cc1,Non-Toxic
9,C[Si](C)(CCO)c1ccc(C(O)(C(F)(F)F)C(F)(F)F)cc1,Non-Toxic
10,CCCC[Si](C)(C)c1ccc(C(O)(C(F)(F)F)C(F)(F)F)cc1,Non-Toxic
11,C[Si](C)(Cc1ccccc1)c1ccc(C(O)(C(F)(F)F)C(F)(F)F)cc1,Non-Toxic
12,C=C[Si](C)(C)c1ccc(C(O)(C(F)(F)F)C(F)(F)F)cc1,Non-Toxic
13,CC[Si](C)(CC)c1ccc(C(O)(C(F)(F)F)C(F)(F)F)cc1,Non-Toxic
14,O=S(=O)(c1ccccc1)N(CC(F)(F)F)c1ccc(C(O)(C(F)(F)F)C(F)(F)F)cc1 [T091317],Non-Toxic
15,C[Si](C)(c1ccccc1)c1ccc(C(O)(C(F)(F)F)C(F)(F)F)cc1,Non-Toxic
16,C=CC[Si](C)(C)c1ccc(C(O)(C(F)(F)F)C(F)(F)F)cc1,Non-Toxic
17,OC(c1ccc([Si](Cc2ccccc2)(Cc2ccccc2)Cc2ccccc2)cc1)(C(F)(F)F)C(F)(F)F,Non-Toxic
18,C[Si](C)(C)c1ccc(C(O)(C(F)(F)F)C(F)(F)F)cc1,Non-Toxic
19,C[Si](C)(c1ccc(C(O)(C(F)(F)F)C(F)(F)F)cc1)C1CCCCC1,Non-Toxic

# Target: T1, Oxysterols receptor LXR-beta (Homo sapiens) (UniProt P55055)
# T1 sequence (whole entry): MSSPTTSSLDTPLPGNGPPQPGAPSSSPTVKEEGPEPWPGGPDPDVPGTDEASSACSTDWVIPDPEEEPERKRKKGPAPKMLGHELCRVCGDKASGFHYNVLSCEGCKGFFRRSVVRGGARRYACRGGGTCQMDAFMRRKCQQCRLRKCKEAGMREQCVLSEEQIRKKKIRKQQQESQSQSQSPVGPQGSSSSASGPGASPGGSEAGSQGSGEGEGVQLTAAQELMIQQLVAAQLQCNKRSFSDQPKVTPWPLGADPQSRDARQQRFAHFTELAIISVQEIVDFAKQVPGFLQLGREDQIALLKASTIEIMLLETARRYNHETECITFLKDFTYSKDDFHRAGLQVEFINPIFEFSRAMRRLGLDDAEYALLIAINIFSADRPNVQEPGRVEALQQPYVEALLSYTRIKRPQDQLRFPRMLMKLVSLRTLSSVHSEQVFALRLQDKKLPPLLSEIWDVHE
# Experiment: Partial agonist activity against human LXRbeta in human HEK293T cells incubated for 24 hrs by reporter gene assay T0901317
# Format: cell-based
# Conditions: not given
row,Activity [%],Compound
1,27,OC(c1ccc([Si](Cc2ccccc2)(Cc2ccccc2)Cc2ccccc2)cc1)(C(F)(F)F)C(F)(F)F

# Target: T2, Oxysterols receptor LXR-alpha (Homo sapiens) (UniProt Q13133)
# T2 sequence (whole entry): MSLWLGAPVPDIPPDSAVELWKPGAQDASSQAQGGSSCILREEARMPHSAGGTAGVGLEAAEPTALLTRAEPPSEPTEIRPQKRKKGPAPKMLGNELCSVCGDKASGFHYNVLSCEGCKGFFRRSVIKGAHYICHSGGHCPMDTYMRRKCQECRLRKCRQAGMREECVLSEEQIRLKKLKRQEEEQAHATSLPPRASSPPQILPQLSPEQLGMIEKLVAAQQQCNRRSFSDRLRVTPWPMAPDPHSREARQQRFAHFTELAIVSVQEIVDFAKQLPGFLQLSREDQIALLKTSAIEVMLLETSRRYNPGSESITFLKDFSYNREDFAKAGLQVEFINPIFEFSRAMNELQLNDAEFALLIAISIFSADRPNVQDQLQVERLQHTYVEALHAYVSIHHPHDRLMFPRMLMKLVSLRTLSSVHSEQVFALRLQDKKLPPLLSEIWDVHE
# Experiment: Partial agonist activity against human LXRalpha in human HEK293T cells incubated for 24 hrs by reporter gene assay relative to T0901317
# Format: cell-based
# Conditions: not given
row,Activity [%],Compound
1,19,OC(c1ccc([Si](Cc2ccccc2)(Cc2ccccc2)Cc2ccccc2)cc1)(C(F)(F)F)C(F)(F)F

# Target: T3, Oxysterols receptor LXR-alpha (Homo sapiens, UniProt Q13133)
# T3 sequence (Q13133 whole entry): T2 sequence (whole entry)
# Experiment: Agonist activity against human LXRalpha expressed in human HEK293T cells co-expressing CMX-GAL4N-hLXRalpha incubated for 24 hrs by reporter gene assay
# Format: cell-based
# Conditions: not given
row,Compound,EC50 [µM]
1,CC(O)[Si](C)(C)c1ccc(C(O)(C(F)(F)F)C(F)(F)F)cc1 (stereo not given),4.45
2,C[Si](C)(CCCO)c1ccc(C(O)(C(F)(F)F)C(F)(F)F)cc1,4.45
3,C[Si](O)(c1ccccc1)c1ccc(C(O)(C(F)(F)F)C(F)(F)F)cc1 (stereo not given),8.5
4,C[Si](C)(CCO)c1ccc(C(O)(C(F)(F)F)C(F)(F)F)cc1,1.46
5,CCCC[Si](C)(C)c1ccc(C(O)(C(F)(F)F)C(F)(F)F)cc1,2.35
6,C=C[Si](C)(C)c1ccc(C(O)(C(F)(F)F)C(F)(F)F)cc1,2.06
7,C[Si](C)(c1ccccc1)c1ccc(C(O)(C(F)(F)F)C(F)(F)F)cc1,2.15
8,OC(c1ccc([Si](Cc2ccccc2)(Cc2ccccc2)Cc2ccccc2)cc1)(C(F)(F)F)C(F)(F)F,4.98
9,C[Si](C)(C)c1ccc(C(O)(C(F)(F)F)C(F)(F)F)cc1,3.12
10,C[Si](C)(c1ccc(C(O)(C(F)(F)F)C(F)(F)F)cc1)C1CCCCC1,1.43

# The next lines start with the values.
row,EC50 [µM],Compound
1,1.13,CC(C)(C)[Si](C)(C)c1ccc(C(O)(C(F)(F)F)C(F)(F)F)cc1
2,0.94,C[Si](C)(Cc1ccccc1)c1ccc(C(O)(C(F)(F)F)C(F)(F)F)cc1
3,0.62,CC[Si](CC)(CC)c1ccc(C(O)(C(F)(F)F)C(F)(F)F)cc1
4,0.59,CC[Si](C)(CC)c1ccc(C(O)(C(F)(F)F)C(F)(F)F)cc1
5,0.58,C[Si](C)(C)[Si](C)(C)c1ccc(C(O)(C(F)(F)F)C(F)(F)F)cc1
6,0.5,C=CC[Si](C)(C)c1ccc(C(O)(C(F)(F)F)C(F)(F)F)cc1
7,0.43,CCC[Si](CCC)(CCC)c1ccc(C(O)(C(F)(F)F)C(F)(F)F)cc1

# Target: T4, Oxysterols receptor LXR-beta (Homo sapiens, UniProt P55055)
# T4 sequence (P55055 whole entry): T1 sequence (whole entry)
# Experiment: Agonist activity against human LXRbeta expressed in human HEK293T cells co-expressing CMX-GAL4N-hLXRbeta incubated for 24 hrs by reporter gene assay
# Format: cell-based
# Conditions: not given
row,Compound,EC50 [µM]
1,CC(O)[Si](C)(C)c1ccc(C(O)(C(F)(F)F)C(F)(F)F)cc1 (stereo not given),3.34
2,C[Si](C)(CCCO)c1ccc(C(O)(C(F)(F)F)C(F)(F)F)cc1,4.03
3,C[Si](O)(c1ccccc1)c1ccc(C(O)(C(F)(F)F)C(F)(F)F)cc1 (stereo not given),5.03
4,C[Si](C)(CCO)c1ccc(C(O)(C(F)(F)F)C(F)(F)F)cc1,1.73
5,CCCC[Si](C)(C)c1ccc(C(O)(C(F)(F)F)C(F)(F)F)cc1,1.7
6,C=C[Si](C)(C)c1ccc(C(O)(C(F)(F)F)C(F)(F)F)cc1,1.8
7,C[Si](C)(c1ccccc1)c1ccc(C(O)(C(F)(F)F)C(F)(F)F)cc1,0.74
8,OC(c1ccc([Si](Cc2ccccc2)(Cc2ccccc2)Cc2ccccc2)cc1)(C(F)(F)F)C(F)(F)F,1.98
9,C[Si](C)(C)c1ccc(C(O)(C(F)(F)F)C(F)(F)F)cc1,1.41
10,C[Si](C)(c1ccc(C(O)(C(F)(F)F)C(F)(F)F)cc1)C1CCCCC1,0.74

# More lines, now with the values ahead:
row,EC50 [µM],Compound
1,0.65,CC(C)(C)[Si](C)(C)c1ccc(C(O)(C(F)(F)F)C(F)(F)F)cc1
2,0.72,C[Si](C)(Cc1ccccc1)c1ccc(C(O)(C(F)(F)F)C(F)(F)F)cc1
3,0.53,CC[Si](CC)(CC)c1ccc(C(O)(C(F)(F)F)C(F)(F)F)cc1
4,0.69,CC[Si](C)(CC)c1ccc(C(O)(C(F)(F)F)C(F)(F)F)cc1
5,0.51,C[Si](C)(C)[Si](C)(C)c1ccc(C(O)(C(F)(F)F)C(F)(F)F)cc1
6,0.45,C=CC[Si](C)(C)c1ccc(C(O)(C(F)(F)F)C(F)(F)F)cc1
7,0.59,CCC[Si](CCC)(CCC)c1ccc(C(O)(C(F)(F)F)C(F)(F)F)cc1
